“Also recorded” adds a separate entry of the source.
How the values were obtained:
mesothelial cells = experiment: Light microscopy and vital-dead (live-dead) staining of mesothelial cells; type: cell-based, human; settings: LiCl, low pH glucose-based or icodextrin-based PD fluids, data not shown
Description: (§1) PDF exposure model: confluent cultures on 12-well plates were exposed for the indicated times (30 min or 1 h) to the PD fluid solution or kept in parallel in control medium. For HSF-1 activity assay, cells were harvested and lysed immediately after exposure times, whereas for measurements of LDH and HSP-72, p-GSK-3β Western blot analysis, cells were allowed to recover by incubation with normal culture medium containing 10% FBS for 16 h.

[1] = system: heat shock factor-1 (HSF-1); experiment: HSF-1 activity by Luciferase assay (heat shock element reporter); type: cell-based, human; settings: 10 mM LiCl; control cells, glucose-based low pH high GDP and low pH icodextrin-based PD fluids; 30 min exposure, 6 h recovery; FIG. 4
Description: as §1, with “[…],” for “For HSF-1 activity assay, cells were harvested and lysed immediately after exposure times,”
To determine the specific binding of the heat shock factor-1 (HSF-1), a commercially available Luciferase Reporter Vector (LR0038, Panomics, Italy) containing the heat shock element [5′[…]3′] as well as an empty control vector were transfected into the MeT-5a cells. 24 h prior to transfection, MC were seeded onto 96-well cell culture plates and allowed to reach approximately 80-90% confluence on day of transfection. Before transfection per well 0.15 μl Fugene6 (Roche) transfection reagent and 0.1 μl HSE reporter vector or control vector were each diluted with 5 μl of normal growth medium without FCS and incubated for 5 min. The solutions were mixed incubated for 30 min. Of this mix 10 μl were added to each well incubated for 24 h at 5% CO2 and 37° C. in a humidified atmosphere. […] The luciferase reagent (E1500, Promega) was added using an automatic pipette in 3 s intervals and the yielded signal was measured after 2 min using a luminometer plate reader (Flx800, BioTek).

[2] = system: human Met-5a cell line (mesothelial cells); experiment: LDH release into the supernatant after PD fluid exposure; type: cell-based; settings: for LDH levels: icodextrin-based fluid
Description: (§2) The human Met-5a cell line was purchased from American Type Culture Collection (ATCC, Rockville, Md.). All cells were cultured in M199 culture medium supplemented with L-glutamine (0.1 g/L), penicillin (100 U/mL), streptomycin (100 μg/mL), 10% fetal bovine serum (FBS) and propagated at 37° C. in a humidified air containing 5% CO2 incubator. Standard chemicals were purchased from Sigma-Aldrich (St. Louis, Mo., USA) unless otherwise stated. Falcon™ tissue culture plastics (Becton Dickinson, Franklin Lakes, N.J., USA) were used for all cell culture procedures.
as §1
For LDH analyses, 200 μL aliquots of supernatants were removed after the described experimental setup and kept on −20° C. until analyzed within 48 h. Measurements were performed in duplicates with Sigma TOX-7 LDH Kit according to the manufacturer's instructions. LDH efflux was normalized for protein content.

[3] = system: human Met-5a cell line (mesothelial cells); experiment: Cell viability by neutral red uptake after PD fluid exposure; settings: 10 mM LiCl; low pH glucose-based or icodextrin-based PD fluids; 1 h exposure, 16 h recovery; FIG. 3
Description: as §2, §1
To assess cell viability by neutral red uptake, cells were seeded out to 96-well plates and exposed to different treatment protocols as described before. Neutral red uptake was measured using a standard reagent (Sigma-Aldrich, St. Louis, Mo., USA) according to the manufacturer's protocol.

[4] = system: Heat shock protein-72 (HSP-72); experiment: HSP-72 expression by Western blot; type: cell-based, human
Description: as §1
For western blotting, protein content is determined by the Bradford assay (Biorad, Vienna, Austria) and equal amounts of protein samples (2 μg/lane) are separated by standard SDS-PAGE using a Pharmacia Multiphore II unit. Size-fractionated proteins are then transferred to PVDF membranes by semi-dry transfer in a Pharmacia Multiphore II Novablot unit. Membranes are blocked in 5% dry milk in TBS-Tween (10 mM Tris, 150 mM NaCl, 0.05% Tween 20, pH 7.4). Membranes are incubated with the respective primary antibody (HSP-72, p-GSK-3β) for 16 h. Detection is accomplished by incubation with secondary, peroxidase-coupled antibodies (anti-mouse or anti-rabbit IgG, both Dako Cytomation, Calif., USA) and enhanced chemiluminescence (ECL) using the ECL western blotting analysis system (Renaissance, NEN-Life Science Products, Boston, Mass., USA).

What does the source list for `[Cl-].[Li+]` [LiCl, Lithium-chloride]?
cell structure (mesothelial cells): preserved cell structure; rate of dead cells (mesothelial cells; live-dead staining): reduced cell death rate; also recorded: reduced rate of dead cells; HSF-1 transcriptional activity [1]: significantly increased; LDH release (cell injury) ([2]; 10 mM LiCl added, all PD fluids observed, 1 h exposure, 16 h recovery, vs no LiCl, FIG. 2): decreased LDH release; also recorded: attenuated LDH release; protection (LDH release) ([2]; 10 mM LiCl, incubation with low pH glucose-based and icodextrin-based solutions, FIG. 2): most prominent protection; LDH levels ([2]; 1 mM LiCl, FIG. 6): did not change significantly; LDH levels ([2]; 2 mM LiCl, FIG. 6): already decreased; LDH levels ([2]; 5 mM LiCl, FIG. 6): the decrease was even more significant; LDH levels ([2]; 10 mM LiCl, FIG. 6): the decrease was even more significant; LDH release ([2]; low pH glucose-based (PDF) fluid, 10 mM LiCl, FIG. 6): significantly reduced; release of LDH into the supernatant ([2]; low pH glucose-based (PDF) fluid, LiCl 1 mM to 5 mM, FIG. 6): did not alter; number of viable cells (neutral red uptake) [3]: improved cell viability; also recorded: increased number of viable cells; level of HSP-72 ([4]; 10 mM LiCl, each incubation setting (glucose-based or icodextrin-based PD fluid, 30 min or 1 h) vs respective untreated cells, FIG. 5): significantly increased; HSP-72 expression ([4]; glucose-based low pH PDF, LiCl 1, 2, 5, 10 mM vs untreated cells, 30 min exposure, 16 h recovery, FIG. 8): increased only after administration of either 2 mM or 10 mM LiCl; HSP-72 protein expression ([4]; icodextrin-based PD fluid, LiCl 1, 2, 5, 10 mM, 30 min exposure, 16 h recovery, FIG. 8): all the applied LiCl doses increased
